{
  "source": "patent US9233109B2",
  "about": "“Compositions, methods of use, and methods of treatment” (UNIVERSITY OF FLORIDA RESEARCH FOUNDATION, INC., priority 2010, dated 2016)",
  "key": {"[1]": {"molecular_target": "T1, α7 nAChR (Homo sapiens, UniProt P36544)", "T1 construct": "expressed in transfected cells; host or cells: Xenopus laevis oocytes injected with cRNA", "experiment": "Bath application of test compound: modulation of ACh-evoked net charge responses in Xenopus oocytes", "format": "cell-based", "procedure": "(§1) We have extended this approach to defined receptor subtypes expressed in Xenopus oocytes. Experiments were conducted on cells expressing HS α4β2 (α4(2)β2(3)), LS α4β2 (α4(3)β2(2)), or α7 nAChR.\n(§2) cDNA: Human nAChR receptor clones and concatamers were obtained from Dr. Jon Lindstrom (University of Pennsylvania, Philadelphia Pa.). The human RIC-3 clone, obtained from Dr. Millet Treinin (Hebrew University, Jerusalem Israel), was co-injected with α7 to improve the levels and speed of receptor expression.\n(§3) Oocyte preparation: Oocytes were surgically removed from mature Xenopus laevis frogs and injected with 50 nl (5-20 ng) of appropriate nAChR subunit cRNAs as described previously (Horenstein et al., 2008).\n(§4) Experiments were conducted using OpusXpress 6000A (Molecular Devices, Union City Calif.) and analyzed as described previously (Papke and Papke, 2002; Horenstein et al., 2008; Papke and Stokes, 2010).\n(§5) Initial experiments were run for 50 minutes after the introduction of the experimental compounds into the bath."}, "[2]": {"conditions": "Mineur et al., 2009; cited from earlier work"}, "[3]": {"molecular_target": "T2, α4(2)β2(2)α5 nAChR (Homo sapiens, UniProt P17787+P30532+P43681)", "T2 construct": "expressed in transfected cells; host or cells: Xenopus laevis oocytes injected with cRNA", "experiment": "Bath application of test compound: inhibition of ACh-evoked responses in Xenopus oocytes", "format": "cell-based", "procedure": "as §2, §3, §4, §5\n(§6) Recently, attention has been drawn to α5 as a member of a gene cluster associated with high risk for cancer and heavy smoking (Saccone et al., 2007). In the periphery, α5 is most likely expressed in association with the other members of its gene cluster, α3 and β4."}, "[4]": {"molecular_target": "T3, α4(3)β2(2) nAChR (Homo sapiens, UniProt P17787+P43681)", "T3 construct": "expressed in transfected cells; host or cells: Xenopus laevis oocytes injected with cRNA", "experiment": "Acute co-application of ACh and cytisine, model fit of peak current responses in oocytes", "format": "cell-based", "source_text": "FIG. 2.1 illustrates a model applied to the activation of nAChR by simultaneous co-applications of the full agonist “a” and a partial agonist “p”. […] The IMax of the full agonist is assigned a value of 1. The first and second terms of the equation represent the activation produced by the full agonist and partial agonists, respectively, scaled by their potencies and weighted by receptor availability. The third term allows noncompetitive effects of the partial agonist. If such noncompetitive activity is inhibitory, then ni is assigned a negative value.\nAcute responses to agonist/partial agonist applications were fit with a general non-linear regression model, implemented as an option in a Windows data analyses and graphical presentation program (CAS Data Forge). The terms na, np, ni, Rmaxp, Inmaxp, EC50a, EC50p, and IC50p were given starting estimates based on the data obtained with the drugs applied separately. Tolerance factor (typically 1×10^−5) range limits for each parameter were specified. […] A predicted matrix was then calculated for each cell of the matrix, based on the a and p concentrations, the set of parameters listed above, and the governing equation. The residuals across all cells were calculated, and an iterative process was utilized to revise the parameters to minimize the residuals and allow the estimates to be revised accordingly. When the difference of estimates for any given parameter for consecutive iterations fell below the tolerance factor, that parameter was fixed at the last estimate. When all parameters were fixed or no convergent solution was found, the process stopped, and the set of parameters representing the best fit along with the resulting matrix was provided.\nThe Imax for the full agonist was constrained to 1 while the Imax for the partial agonist was a free parameter <1.0.\nCurve fit values for the drugs when applied alone were used as seeds for the competitive interactions."}, "[5]": {"molecular_target": "T4, α4β2α5 nAChR (Homo sapiens, UniProt P17787+P30532+P43681)", "T4 construct": "expressed in transfected cells; host or cells: Xenopus laevis oocytes injected with cRNA", "experiment": "Agonist activation of α4β2α5 receptors in oocytes", "format": "cell-based", "source_text": "as §6"}, "[6]": {"molecular_target": "T2, α4(2)β2(2)α5 nAChR", "experiment": "Mecamylamine-sensitive steady-state activation during bath application, oocytes", "format": "cell-based", "conditions": "bath concentration 1 μM", "source_text": "(§7) In our bath application experiments we frequently saw small responses at the beginning of the bath applications, and sometimes there were significant shifts in baseline holding current that occurred over the long periods of recording. While increases in baseline current would be consistent with the stimulation of steady-state currents, baseline shifts can occur for other reasons as well, especially if the quality of the voltage clamp diminished over a long period of recording.\n(§8) Even after just 30 minutes of continual bath application, a large shift in baseline was apparent. […] Table 3 provides a summary of the mecamylamine-sensitive steady-state currents measured for each of the drug-receptor combinations associated with drifting baselines."}, "[7]": {"molecular_target": "T3, α4(3)β2(2) nAChR", "experiment": "Mecamylamine-sensitive steady-state activation during bath application, oocytes", "format": "cell-based", "conditions": "bath concentration 300 nM", "source_text": "as §7, §8"}, "[8]": {"molecular_target": "T5, α4(2)β2(3) nAChR (Homo sapiens, UniProt P17787+P43681)", "T5 construct": "expressed in transfected cells; host or cells: Xenopus laevis oocytes injected with cRNA", "experiment": "Mecamylamine-sensitive steady-state activation during bath application, oocytes", "format": "cell-based", "conditions": "bath concentration 100 nM", "source_text": "as §7, §8"}, "[9]": {"molecular_target": "T6, LS α4β2 (α4(3)β2(2)) nAChR (Homo sapiens, UniProt P17787+P43681)", "T6 construct": "expressed in transfected cells; host or cells: Xenopus laevis oocytes injected with cRNA", "experiment": "Bath application of test compound: inhibition of ACh-evoked peak currents in Xenopus oocytes", "format": "cell-based", "procedure": "as §1, §2, §3, §4, §5"}, "[10]": {"molecular_target": "T7, HS α4β2 (α4(2)β2(3)) nAChR (Homo sapiens, UniProt P17787+P43681)", "T7 construct": "expressed in transfected cells; host or cells: Xenopus laevis oocytes injected with cRNA", "experiment": "Bath application of test compound: inhibition of ACh-evoked peak currents in Xenopus oocytes", "format": "cell-based", "procedure": "as §1, §2, §3, §4, §5"}, "[11]": {"tested_on": "α4β2 receptors", "conditions": "cited from earlier work"}, "[12]": {"conditions": "IC50, inhibition of ACh-evoked responses by prolonged bath application"}, "[13]": {"conditions": "IC50 for the inhibition of ACh evoked responses by bath applications of agonists and partial agonists"}, "[14]": {"conditions": "noncompetitive inhibition factor"}},
  "data": [
    {"molecule": "C[N+](C)(C)CCO", "note": "[choline]", "values": [
      {"measurement": "IC50", "setting": "[1]; [12]", "value": "6700 ± 1200", "unit": "nM"}
    ]},
    {"molecule": "O=c1cccc2n1C[C@@H]1CNC[C@H]2C1", "note": "[Cytisine, cytisine]", "values": [
      {"measurement": "IC50", "setting": "[1]; [12]", "value": "300 ± 200", "unit": "nM"},
      {"measurement": "IC50", "setting": "[1]; [13]", "value": 1200, "unit": "nM"},
      {"measurement": "potency at reducing immobility compared with mecamylamine", "setting": "[2]", "value": "equipotent as the pure antagonist mecamylamine"},
      {"measurement": "IC50", "setting": "[3]", "value": "3.2 ± 1.6", "unit": "nM"},
      {"measurement": "Activation n (Hill coefficient, best fit)", "setting": "[4]", "value": 0.61},
      {"measurement": "best fit IC50 relative to EC50", "setting": "[4]", "value": "three-fold lower"},
      {"measurement": "Inhibition Inmax of the partial agonist (best fit)", "setting": "[4]; [14]", "value": 0.7},
      {"measurement": "Inhibition n (Hill coefficient, best fit)", "setting": "[4]; [14]", "value": 1.7},
      {"measurement": "IC50", "setting": "[4]; noncompetitive inhibition factor, read-out: Inhibition IC50 of the partial agonist (best fit)", "value": 32000, "unit": "nM"},
      {"measurement": "EC50", "setting": "[4]; peak current, read-out: Activation EC50 (best fit)", "value": 88000, "unit": "nM"},
      {"measurement": "Activation Rmax (best fit)", "setting": "[4]; relative to ACh maximum, ACh constrained to 1", "value": 0.35},
      {"measurement": "EC50", "setting": "[5]", "value": "18 ± 9", "unit": "nM"},
      {"measurement": "efficacy for α4β2α5 receptors, % that of ACh", "setting": "[5]", "value": "6±1", "unit": "%"},
      {"measurement": "Mecamylamine-sensitive steady-state activation relative to ACh maximum evoked transient responses", "setting": "[6]", "value": "2.5 ± 0.5", "unit": "%"},
      {"measurement": "Mecamylamine-sensitive steady-state activation relative to ACh maximum evoked transient responses", "setting": "[7]", "value": "1.1 ± 0.2", "unit": "%"},
      {"measurement": "Mecamylamine-sensitive steady-state activation relative to ACh maximum evoked transient responses", "setting": "[8]", "value": "1.4 ± 0.1", "unit": "%"},
      {"measurement": "IC50", "setting": "[9]; [12]", "value": "85 ± 44", "unit": "nM"},
      {"measurement": "IC50", "setting": "[9]; [13]", "value": "27 ± 14", "unit": "nM"},
      {"measurement": "IC50", "setting": "[10]", "value": "8 ± 5", "unit": "nM"},
      {"measurement": "efficacy for α4β2 receptors, % that of ACh", "setting": "[11]", "value": "< 20", "unit": "%"}
    ]},
    {"molecule": "c1cnc2cc3c(cc2n1)C1CNCC3C1", "note": "[Varenicline, 7,8,9,10-tetrahydro-6,10-methano-6H-pyrazino (2,3-h)(3) benzazepine]", "values": [
      {"measurement": "inhibition at 1 µM", "setting": "[3]; read-out: inhibition of transient ACh-evoked responses", "value": 100, "unit": "%"},
      {"measurement": "efficacy for α4β2α5 receptors, % that of ACh", "setting": "[5]", "value": "9±1", "unit": "%"}
    ]},
    {"molecule": "CN1CCCC1c1cccnc1", "note": "(stereo not drawn) [Nicotine, nicotine]", "values": [
      {"measurement": "efficacy for α4β2α5 receptors, % that of ACh", "setting": "[5]", "value": "approximately 35%"}
    ]}
  ]
}
